This passage reports Bliss interaction score results from the supplement of paper PMC10627819.

What all share (test): Bliss interaction score (quartile over a dose matrix) (fitness difference); higher = more antagonism (negative = synergy)
Assay [1] has as its system S. aureus Newman. An outline of the steps:
(§1)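 The Bliss score subtracts expected fitness, the product of the single-drug fitness values, from observed fitness. Fitness is plate-normalised OD595 at entry into stationary phase, relative to the robust no-drug mean and capped at 1, with single-drug fitness inferred from combinations. Summaries are quartiles over technical, biological and donor/recipient replicates.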

Assay [2] relates to B. subtilis 168. The procedure, abridged: as §1
For assay [3], the system named is S. aureus DSM 20231. An outline of the steps:
as §1

For assay [4], the system named is S. pneumoniae D39V. The procedure, abridged: as §1
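Further: first quartile when negative (synergy) and third quartile when positive (antagonism).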

For `N#CC(C#N)=NNc1cccc(Cl)c1` [CCCP] + CO[C@@]12[C@H](COC(N)=O)C3=C(C(=O)C(C)=C(N)C3=O)N1C[C@@H]1N[C@@H]12 [MitomycinC], the Bliss interaction score in assay [1] is -0.0345; in assay [2], -0.051; in assay [3] it was -0.0844; in assay [4], -0.0605.

On to `N#CC(C#N)=NNc1cccc(Cl)c1` [CCCP] + CO[C@H]1/C=C/O[C@@]2(C)Oc3c(C)c(O)c4c(O)c(c(/C=N/N5CCN(C)CC5)c(O)c4c3C2=O)NC(=O)/C(C)=C\C=C\[C@H](C)[C@H](O)[C@@H](C)[C@@H](O)[C@@H](C)[C@H](OC(C)=O)[C@@H]1C [Rifampicin], for which the Bliss interaction score is 0.0395 in assay [1], -0.0783 in assay [2], 0.0329 in assay [3] and 0.0879 in assay [4].

On to `N#CC(C#N)=NNc1cccc(Cl)c1` [CCCP] + COc1c(N2C[C@@H]3CCCN[C@@H]3C2)c(F)cc2c(=O)c(C(=O)O)cn(C3CC3)c12 [Moxifloxacin], for which the Bliss interaction score in assay [1] was -0.0686; in assay [2], 0.0233; in assay [3], -0.0373; in assay [4], 0.0433.

Regarding `N#CC(C#N)=NNc1cccc(Cl)c1` [CCCP] + COc1cc(Cc2cnc(N)nc2N)cc(OC)c1OC [Trimethoprim], the Bliss interaction score in assay [1] was -0.0599; in assay [2], 0.0605; in assay [3], 0.0495; in assay [4], 0.183.

Consider `N#CC(C#N)=NNc1cccc(Cl)c1` [CCCP] + COc1ccc(C[C@H](N)C(=O)N[C@H]2[C@@H](O)[C@H](n3cnc4c(N(C)C)ncnc43)O[C@@H]2CO)cc1 [Puromycin], for which the Bliss interaction score in assay [1] was determined as 0.0515; in assay [2] it was 0.0243; in assay [3], 0.0553; in assay [4], 0.0604.

As for `N#CC(C#N)=NNc1cccc(Cl)c1` [CCCP] + COc1cccc2c1C(=O)c1c(O)c3c(c(O)c1C2=O)C[C@@](O)(C(=O)CO)C[C@@H]3O[C@H]1C[C@H](N)[C@H](O)[C@H](C)O1 [Doxorubicin], the Bliss interaction score in assay [1] was -0.0546; in assay [2] it was -0.0695; in assay [3] it was 0.0424; in assay [4] it was -0.0519.

Regarding `N#CC(C#N)=NNc1cccc(Cl)c1` [CCCP] + C[C@@H]1O[C@@H]1P(=O)(O)O [Fosfomycin], the Bliss interaction score in assay [1] stood at 0.0906; in assay [2] it was 0.0638; in assay [3], 0.0417; in assay [4] it was 0.0604.

For the molecule `N#CC(C#N)=NNc1cccc(Cl)c1` [CCCP] + C[C@@H](O)[C@H]1C(=O)N2C(C(=O)O)=C(SCCNC=N)C[C@H]12 [Imipenem], the Bliss interaction score in assay [1] was 0.0181; in assay [2], -0.0769; in assay [3], 0.0449; in assay [4], 0.0923.

For the molecule `N#CC(C#N)=NNc1cccc(Cl)c1` [CCCP] + C[C@H]1COc2c(N3CCN(C)CC3)c(F)cc3c(=O)c(C(=O)O)cn1c23 [Levofloxacin], the Bliss interaction score was 0.0426 in assay [1], 0.0457 in assay [2], -0.0231 in assay [3] and 0.0909 in assay [4].

`N#CC(C#N)=NNc1cccc(Cl)c1` [CCCP] + C[C@H]1c2cccc(O)c2C(=O)C2=C(O)[C@]3(O)C(=O)C(C(N)=O)=C(O)[C@@H](N(C)C)[C@@H]3[C@@H](O)[C@@H]21 [Doxycycline]: the Bliss interaction score in assay [1] was 0.0768; in assay [2], -0.0353; in assay [3], -0.0215; in assay [4], 0.047.

Take `N#CC(C#N)=NNc1cccc(Cl)c1` [CCCP] + C[n+]1ccc(-c2cc[n+](C)cc2)cc1 [Paraquat]: the Bliss interaction score was -0.0253 in assay [1], 0.0508 in assay [2], -0.0508 in assay [3] and 0.0866 in assay [4].

On to `N#CC(C#N)=NNc1cccc(Cl)c1` [CCCP] + Cc1cc(NS(=O)(=O)c2ccc(N)cc2)no1 [Sulfamethoxazol], for which the Bliss interaction score in assay [1] was -0.0463; in assay [2] it was -0.0348; in assay [3], -0.0343; in assay [4] it was 0.0794.

For the molecule `N#CC(C#N)=NNc1cccc(Cl)c1` [CCCP] + Cc1ncc([N+](=O)[O-])n1CCO [Metronidazole], the Bliss interaction score was -0.0331 in assay [1], 0.0615 in assay [2], 0.0642 in assay [3] and 0.12 in assay [4].

In the case of `N#CC(C#N)=NNc1cccc(Cl)c1` [CCCP] + Cc1onc(-c2ccccc2)c1C(=O)N[C@@H]1C(=O)N2[C@@H]1SC(C)(C)[C@@H]2C(=O)O [Oxacillin], the Bliss interaction score in assay [1] was -0.0755; in assay [2] it was 0.0476; in assay [3], 0.0876; in assay [4] it was 0.12.

As to `N#CC(C#N)=NNc1cccc(Cl)c1` [CCCP] + Clc1ccc(COC(Cn2ccnc2)c2ccc(Cl)cc2Cl)c(Cl)c1 [Miconazole], the Bliss interaction score is -0.0554 in assay [1], 0.0582 in assay [2], -0.0382 in assay [3] and -0.0431 in assay [4].

`N#CC(C#N)=NNc1cccc(Cl)c1` [CCCP] + Cn1nnc(-c2ccc(-c3ccc(N4C[C@H](CO)OC4=O)cc3F)cn2)n1 [Tedizolid]: the Bliss interaction score in assay [1] was 0.104; in assay [2], -0.0578; in assay [3] it was -0.031; in assay [4], 0.044.

With `N#CC(C#N)=NNc1cccc(Cl)c1` [CCCP] + N[C@@H]1CONC1=O [CycloserineD], the Bliss interaction score in assay [1] was -0.0487; in assay [2], 0.0617; in assay [3] it was -0.0883; in assay [4] it was 0.102.

Regarding `N#CC(C#N)=NNc1cccc(Cl)c1` [CCCP] + O=C1CN(/N=C/c2ccc([N+](=O)[O-])o2)C(=O)N1 [Nitrofurantoin], the Bliss interaction score in assay [1] is -0.0479; in assay [2] it was -0.0566; in assay [3] it was -0.0278; in assay [4] it was -0.109.

Regarding `N#CC(C#N)=NNc1cccc(Cl)c1` [CCCP] + O=C(N[C@H](CO)[C@H](O)c1ccc([N+](=O)[O-])cc1)C(Cl)Cl [Chloramphenicol], the Bliss interaction score in assay [1] was 0.076; in assay [2] it was -0.0662; in assay [3], -0.0344; in assay [4], -0.0866.

On to `N#CC(C#N)=NNc1cccc(Cl)c1` [CCCP] + O=C(O)[C@H]1/C(=C/CO)O[C@@H]2CC(=O)N21 [Clavulanic], for which the Bliss interaction score in assay [1] is 0.0274; in assay [2] it was 0.0453; in assay [3], -0.315; in assay [4] it was 0.0476.

For the molecule `N#CC(C#N)=NNc1cccc(Cl)c1` [CCCP] + O=C(O)c1cn(C2CC2)c2cc(N3CCNCC3)c(F)cc2c1=O [Ciprofloxacin], the Bliss interaction score in assay [1] is -0.0497; in assay [2] it was -0.0456; in assay [3], -0.0358; in assay [4] it was 0.0549.

`N#CC(C#N)=NNc1cccc(Cl)c1` [CCCP] + O=C(O[C@@H]1Cc2c(O)cc(O)cc2O[C@@H]1c1cc(O)c(O)c(O)c1)c1cc(O)c(O)c(O)c1 [EGCG]: the Bliss interaction score in assay [1] is -0.0367; in assay [2], -0.0905; in assay [3] it was -0.0526; in assay [4], 0.105.

On to `N#CC(C#N)=NNc1cccc(Cl)c1` [CCCP] + Oc1cc(Cl)ccc1Oc1ccc(Cl)cc1Cl [Triclosan], for which the Bliss interaction score in assay [1] is -0.021; in assay [2] it was 0.0443; in assay [3], 0.0338; in assay [4], 0.0866.

Regarding `CO/N=C(\C(=O)N[C@@H]1C(=O)N2C(C(=O)O)=C(COC(C)=O)CS[C@H]12)c1csc(N)n1` [Cefotaxime] + CC1(C)S[C@@H]2[C@H](NC(=O)Cc3ccccc3)C(=O)N2[C@H]1C(=O)O [PenicillinG], the Bliss interaction score in assay [1] was -0.0351; in assay [2] it was -0.151; in assay [3] it was -0.0835; in assay [4] it was -0.0791.

Turning to `CO/N=C(\C(=O)N[C@@H]1C(=O)N2C(C(=O)O)=C(COC(C)=O)CS[C@H]12)c1csc(N)n1` [Cefotaxime] + CC(=O)O[C@H]1C[C@@]2(C)[C@@H](C[C@@H](O)[C@H]3[C@@]4(C)CC[C@@H](O)[C@@H](C)[C@@H]4CC[C@@]32C)/C1=C(\CCC=C(C)C)C(=O)O [Fusidic acid], the Bliss interaction score in assay [1] is 0.0487; in assay [2], 0.0613; in assay [3] it was 0.0189; in assay [4], 0.11.

For `CO/N=C(\C(=O)N[C@@H]1C(=O)N2C(C(=O)O)=C(COC(C)=O)CS[C@H]12)c1csc(N)n1` [Cefotaxime] + CCC[C@@H]1C[C@@H](C(=O)N[C@@H]([C@H]2O[C@H](SC)[C@H](O)[C@@H](O)[C@H]2O)[C@H](C)Cl)N(C)C1 [Clindamycin], the Bliss interaction score was -0.0656 in assay [1], 0.0327 in assay [2], 0.0463 in assay [3] and 0.113 in assay [4].

In the case of `CO/N=C(\C(=O)N[C@@H]1C(=O)N2C(C(=O)O)=C(COC(C)=O)CS[C@H]12)c1csc(N)n1` [Cefotaxime] + CC[C@H]1OC(=O)[C@H](C)C(=O)[C@H](C)[C@@H](O[C@@H]2O[C@H](C)C[C@H](N(C)C)[C@H]2O)[C@](C)(OC)C[C@@H](C)C(=O)[C@H](C)[C@H]2N(CCCCn3cnc(-c4cccnc4)c3)C(=O)O[C@]12C [Telithromycin], the Bliss interaction score in assay [1] is -0.033; in assay [2], 0.0749; in assay [3], 0.0754; in assay [4], 0.0507.

On to `CO/N=C(\C(=O)N[C@@H]1C(=O)N2C(C(=O)O)=C(COC(C)=O)CS[C@H]12)c1csc(N)n1` [Cefotaxime] + CC[C@H]1OC(=O)[C@H](C)[C@@H](O[C@H]2C[C@@](C)(OC)[C@@H](O)[C@H](C)O2)[C@H](C)[C@@H](O[C@@H]2O[C@H](C)C[C@H](N(C)C)[C@H]2O)[C@](C)(O)C[C@@H](C)C(=O)[C@H](C)[C@@H](O)[C@]1(C)O [Erythromycin], for which the Bliss interaction score in assay [1] is -0.0525; in assay [2], 0.0702; in assay [3], 0.016; in assay [4] it was 0.0515.

For `CO/N=C(\C(=O)N[C@@H]1C(=O)N2C(C(=O)O)=C(COC(C)=O)CS[C@H]12)c1csc(N)n1` [Cefotaxime] + CC[C@H]1OC(=O)[C@H](C)[C@@H](O[C@H]2C[C@@](C)(OC)[C@@H](O)[C@H](C)O2)[C@H](C)[C@@H](O[C@@H]2O[C@H](C)C[C@H](N(C)C)[C@H]2O)[C@](C)(OC)C[C@@H](C)C(=O)[C@H](C)[C@@H](O)[C@]1(C)O [Clarithromycin], the Bliss interaction score was -0.0626 in assay [1], 0.0567 in assay [2], 0.0514 in assay [3] and 0.0611 in assay [4].

On to `CO/N=C(\C(=O)N[C@@H]1C(=O)N2C(C(=O)O)=C(COC(C)=O)CS[C@H]12)c1csc(N)n1` [Cefotaxime] + CN(C)[C@@H]1C(O)=C(C(N)=O)C(=O)[C@@]2(O)C(O)=C3C(=O)c4c(O)ccc(Cl)c4[C@@](C)(O)[C@H]3C[C@@H]12 [Clortetracycline], for which the Bliss interaction score in assay [1] amounted to 0.0483; in assay [2], 0.0481; in assay [3], 0.0917; in assay [4], 0.0665.
